Measurements from article PMC8915600, “Optimization of experimental conditions for skin-PAMPA measurements” (ADMET & DMPK, 2020).
Where two headings read alike, the source gives them in different places. Marks after values point to notes of the source that are not given here.

How the values were obtained:
[1] = design: method as in earlier work; conditions: octanol-water partition coefficient; cited from earlier work
[2] = cited from earlier work
[3] = cited from earlier work; remark: listed apart in the source
[4] = skin-PAMPA permeability assay (gradient-pH, UPLC-DAD); conditions: for Papp at 4 h, 50 μM / Papp at 30 min, 50 μM / Papp at 24 h, 50 μM: PAMPA
in vitro = conditions: PAMPA, pH 7.4, log Pe
[5] = skin-PAMPA membrane stability after pre-treatment at basic pH; conditions: membrane soaked at pH 7, 8, 9, 10 for 30 min or 4 h; then assay 4 h with stirring, donor pH 5, acceptor pH 7.4; versus untreated membrane
Method: Then, a standard permeation assay was carried out with an incubation time of 4 h and stirring at pH 5 in the donor compartment and pH 7.4 in the acceptor compartment. Simultaneously, permeation assays were also performed without the previous soaking treatment at basic pH.

[6] = logarithm of human skin permeation coefficient, neutral form, corrected for ionization in water and for temperature at 37 °C
[7] = log Pe, with stirring, 4 h incubation, neutral form (donor pH 3.0, aminopyrine pH 7.0), acceptor pH 7.4, 32 °C
[8] = log Pe, without stirring, 30 min incubation, neutral form (donor pH 3.0, aminopyrine pH 7.0), acceptor pH 7.4, 32 °C
[9] = log Pe, without stirring, 4 h incubation, neutral form (donor pH 3.0, aminopyrine pH 7.0), acceptor pH 7.4, 32 °C
[10] = mole fraction, with stirring, 30 min incubation, neutral form
[11] = mole fraction, with stirring, 4 h incubation, neutral form
[12] = mole fraction, with stirring, 24 h incubation, neutral form
[13] = mole fraction, without stirring, 30 min incubation, neutral form
[14] = mole fraction, without stirring, 4 h incubation, neutral form
[15] = mole fraction, without stirring, 24 h incubation, neutral form
[16] = optimized assay conditions (4 h incubation, stirring), measured at the pH corresponding to the neutral form, acceptor pH 7.4
[17] = with stirring, 30 min incubation, neutral form (donor pH 3.0, aminopyrine pH 7.0), acceptor pH 7.4, 32 °C
[18] = pH 7.4, log Pe, optimized assay conditions (4 h incubation, stirring), measured at the pH corresponding to the neutral form, acceptor pH 7.4
[19] = log Pe, with stirring, 24 h incubation, neutral form (donor pH 3.0, aminopyrine pH 7.0), acceptor pH 7.4, 32 °C
[20] = log Pe, without stirring, 24 h incubation, neutral form (donor pH 3.0, aminopyrine pH 7.0), acceptor pH 7.4, 32 °C

CC(C(=O)O)c1ccc(-c2ccccc2)c(F)c1 (centres unmarked) [Flurbiprofen]
log Po/w [1]: 4.16
pKa [2]: 4.19 ^c
log Kp [3, 6]: -4.72 cm/s
Papp at 4 h, 50 μM [4, 7]: 204 ×10⁻⁶ cm/s
Papp at 30 min, 50 μM [4, 8]: 288 ×10⁻⁶ cm/s
Papp at 4 h, 50 μM [4, 9]: 141 ×10⁻⁶ cm/s
RM (membrane retention) [4, 10]: 0.18(±0.03)
RM (membrane retention) [4, 11]: 0.00
RM (membrane retention) [4, 12]: 0.00
RM (membrane retention) [4, 13]: 0.13(±0.02)
RM (membrane retention) [4, 14]: 0.00
RM (membrane retention) [4, 15]: 0.00
log Pe [4, 16]: -3.69±0.01 cm/s
log Pe [4, 17]: -2.98(±0.13) cm/s

Oc1ccccc1O [Catechol]
log Kp [3, 6]: -5.87 cm/s
Papp at 4 h, 50 μM [4, 18]: 4.07 ×10⁻⁶ cm/s

CCC1(c2ccccc2)C(=O)NC(=O)NC1=O [5-Ethyl-5-phenylbarbituric acid]
Papp (in vitro): 0.891 ×10⁻⁶ cm/s
log Kp ([3]; human): -6.68 cm/s

Oc1ccc(O)cc1 [Hydroquinone]
log Kp [3, 6]: -6.31 cm/s
Papp at 4 h, 50 μM [4, 18]: 1.35 ×10⁻⁶ cm/s

COC(=O)Cc1ccc(O)cc1 [4-Hydroxy-methylphenylacetate]
log Kp [3, 6]: -5.26 cm/s
log Pe [4, 16]: -5.07±0.09 cm/s

Cn1c(=O)c2c(ncn2C)n(C)c1=O [Caffeine]
log Kp [3, 6]: -6.85 cm/s

Oc1ccc(Cl)cc1Cl [2,4-Dichlorophenol]
Papp at 4 h, 50 μM (in vitro): 120 ×10⁻⁶ cm/s
log Kp [3, 6]: -4.30 cm/s

O=[N+]([O-])c1ccc(O)cc1 [4-Nitrophenol]
Papp (in vitro; [16]): 12.3 ×10⁻⁶ cm/s
log Kp [3, 6]: -5.33 cm/s

CC(=O)OCC(=O)[C@@]12OC(C)(C)O[C@@H]1C[C@H]1[C@@H]3C[C@H](F)C4=CC(=O)C=C[C@]4(C)[C@@]3(F)[C@@H](O)C[C@@]12C [Fluocinonide]
Papp at 4 h, 50 μM [4, 18]: 4.17 ×10⁻⁶ cm/s

COc1c2occc2cc2ccc(=O)oc12 [8-Methoxypsoralen]
Papp at 4 h, 50 μM [4, 18]: 50.1 ×10⁻⁶ cm/s

Nc1ccccc1N [o-Phenylenediamine]
log Kp [3, 6]: -6.70 cm/s
log Pe [4, 16]: -5.42±0.02 cm/s

C[C@]12CC[C@@H]3c4ccc(O)cc4CC[C@H]3[C@@H]1CC[C@@H]2O [Estradiol]
log Kp [3, 6]: -5.61 cm/s

Nc1ccc(O)c([N+](=O)[O-])c1 [4-Amino-2-nitrophenol]
log Kp [3, 6]: -5.91 cm/s
Papp at 4 h, 50 μM [4, 18]: 25.7 ×10⁻⁶ cm/s

NC(=O)Cc1ccc(O)cc1 [4-Hydroxyphenylacetamide]
log Kp [3, 6]: -6.89 cm/s
Papp at 4 h, 50 μM [4, 18]: 0.851 ×10⁻⁶ cm/s

CC(C)Cc1ccc(C(C)C(=O)O)cc1 (centres unmarked) [Ibuprofen]
log Kp [3, 6]: -4.58 cm/s
Papp at 4 h, 50 μM [4, 7]: 245 ×10⁻⁶ cm/s
Papp at 30 min, 50 μM [4, 8]: 257 ×10⁻⁶ cm/s
Papp at 4 h, 50 μM [4, 9]: 224 ×10⁻⁶ cm/s
RM (membrane retention) [4, 10]: 0.22(±0.03)
RM (membrane retention) [4, 11]: 0.00
RM (membrane retention) [4, 12]: 0.00
RM (membrane retention) [4, 13]: 0.19(±0.07)
RM (membrane retention) [4, 14]: 0.09(±0.03)
RM (membrane retention) [4, 15]: 0.00
log Pe [4, 16]: -3.61±0.06 cm/s
log Pe [4, 17]: -2.71(±0.04) cm/s

c1ccc2cnccc2c1 [Isoquinoline]
log Kp [3, 6]: -5.11 cm/s
Papp at 4 h, 50 μM [4, 18]: 63.1 ×10⁻⁶ cm/s

CC(=O)[C@H]1CC[C@H]2[C@@H]3CCC4=CC(=O)CC[C@]4(C)[C@H]3CC[C@]12C [Progesterone]
log Kp [3, 6]: -4.90 cm/s
Papp at 4 h, 50 μM [4, 7]: 77.6 ×10⁻⁶ cm/s
Papp at 24 h, 50 μM [4, 19]: 25.7 ×10⁻⁶ cm/s
Papp at 30 min, 50 μM [4, 8]: 15.5 ×10⁻⁶ cm/s
Papp at 4 h, 50 μM [4, 9]: 13.2 ×10⁻⁶ cm/s
Papp at 24 h, 50 μM [4, 20]: 20.4 ×10⁻⁶ cm/s
Papp at 4 h, 50 μM [4, 18]: 74.1 ×10⁻⁶ cm/s
RM (membrane retention) [4, 10]: 0.50(±0.04)
RM (membrane retention) [4, 11]: 0.74(±0.01)
RM (membrane retention) [4, 12]: 0.88(±0.01)
RM (membrane retention) [4, 13]: 0.33(±0.01)
RM (membrane retention) [4, 14]: 0.62(±0.04)
RM (membrane retention) [4, 15]: 0.83(±0.02)
RM (membrane retention) ([4]; range over all incubation times (30 min, 4 h, 24 h), with and without stirring): 0.33-0.88
log Pe [4, 17]: -3.25(±0.25) cm/s
log Pe ([4]; without stirring, 4 h incubation, neutral form (donor pH 3.0, aminopyrine pH 7.0), acceptor pH 7.4, 32 °C): -4.88 cm/s

COC1=CC(=O)C[C@@H](C)[C@]12Oc1c(Cl)c(OC)cc(OC)c1C2=O [Griseofulvin]
log Po/w [1]: 2.18
log Kp [3, 6]: -6.44 cm/s
Papp at 4 h, 50 μM [4, 7]: 5.62 ×10⁻⁶ cm/s
Papp at 24 h, 50 μM [4, 19]: 7.59 ×10⁻⁶ cm/s
Papp at 30 min, 50 μM [4, 8]: 2.24 ×10⁻⁶ cm/s
Papp at 4 h, 50 μM [4, 9]: 4.68 ×10⁻⁶ cm/s
Papp at 24 h, 50 μM [4, 20]: 6.31 ×10⁻⁶ cm/s
Papp at 4 h, 50 μM [4, 18]: 5.25 ×10⁻⁶ cm/s
RM (membrane retention) [4, 10]: 0.06(±0.01)
RM (membrane retention) [4, 11]: 0.19(±0.01)
RM (membrane retention) [4, 12]: 0.24(±0.02)
RM (membrane retention) [4, 13]: 0.03(±0.02)
RM (membrane retention) [4, 14]: 0.16(±0.01)
RM (membrane retention) [4, 15]: 0.20(±0.02)
log Pe [4, 17]: -5.61(±0.01) cm/s
change of skin-PAMPA log Pe after membrane treatment at basic pH [5]: slight increase at pH 9 and 10

CCc1ccc(O)cc1 [4-Ethylphenol]
log Kp [3, 6]: -4.53 cm/s
Papp at 4 h, 50 μM [4, 18]: 64.6 ×10⁻⁶ cm/s

COc1ccccc1 [Methyl phenyl ether (Anisole), Methyl phenyl ether]
log Kp [3, 6]: -4.68 cm/s
Papp at 4 h, 50 μM [4, 18]: 45.7 ×10⁻⁶ cm/s

Cc1cccc(O)c1 [3-Methylphenol (m-Cresol), 3-Methylphenol]
Papp (in vitro; [16]): 46.8 ×10⁻⁶ cm/s
log Kp [3, 6]: -4.89 cm/s

Oc1ccc(Cl)cc1 [4-Chlorophenol]
log Kp [3, 6]: -4.52 cm/s

COC(=O)c1ccc(O)cc1 [Methyl 4-hydroxybenzoate]
log Kp [3, 6]: -5.12 cm/s

CN1C(C(=O)Nc2ccccn2)=C(O)c2ccccc2S1(=O)=O [Piroxicam]
log Kp [3, 6]: -6.02 cm/s
Papp at 4 h, 50 μM [4, 18]: 21.4 ×10⁻⁶ cm/s

CC(=O)CC(c1ccccc1)c1c(O)c2ccccc2oc1=O (centres unmarked) [warfarin]
change of skin-PAMPA log Pe after membrane treatment at basic pH [5]: slight increase at pH 9 and 10

Cc1ccccc1N [2-toluidine]
change of skin-PAMPA log Pe after membrane treatment at basic pH [5]: remain constant

Cc1ccc(C(C)C)c(O)c1 [2-Isopropyl-5-Methylphenol (Thymol), 2-Isopropyl-5-Methylphenol]
log Kp [3, 6]: -4.35 cm/s
Papp at 4 h, 50 μM [4, 18]: 97.7 ×10⁻⁶ cm/s

CC(C(=O)O)c1cccc(C(=O)c2ccccc2)c1 (centres unmarked) [Ketoprofen]
log Kp [3, 6]: -5.22 cm/s

CCC1(CC)C(=O)NC(=O)NC1=O [5,5-Diethylbarbituric acid (Barbital), 5,5-Diethylbarbituric acid]
Papp (in vitro): 1.78 ×10⁻⁶ cm/s
log Kp ([3]; human): -7.29 cm/s

Cc1c(N(C)C)c(=O)n(-c2ccccc2)n1C [Aminopyrine]
pKa ([2]; aqueous): 5.00 ^b
log Kp [3, 6]: -6.55 cm/s

O=C(OCc1ccccc1)c1cccnc1 [Benzyl nicotinate]
log Kp [3, 6]: -4.87 cm/s
Papp at 4 h, 50 μM [4, 18]: 69.2 ×10⁻⁶ cm/s

Nc1ccccc1 [Aniline]
Papp (in vitro): 28.2 ×10⁻⁶ cm/s
log Kp ([3]; human): -4.94 cm/s

O=C(O)Cc1ccccc1Nc1c(Cl)cccc1Cl [Diclofenac]
log Kp [3, 6]: -5.30 cm/s
Papp at 4 h, 50 μM [4, 18]: 162 ×10⁻⁶ cm/s

CC(=O)[C@@]1(O)CC[C@H]2[C@@H]3CCC4=CC(=O)CC[C@]4(C)[C@H]3CC[C@@]21C [Hydroxyprogesterone]
log Kp [3, 6]: -6.30 cm/s
log Pe [4, 16]: -4.70±0.05 cm/s

OCc1ccc(O)cc1 [4-Hydroxybenzyl alcohol]
log Kp [3, 6]: -6.26 cm/s
Papp at 4 h, 50 μM [4, 18]: 1.41 ×10⁻⁶ cm/s

C[C@]12CCC(=O)C=C1CC[C@@H]1[C@@H]2CC[C@@]2(C)[C@H]1CC[C@]2(O)C(=O)CO [Cortexolone]
log Kp [3, 6]: -7.20 cm/s
Papp at 4 h, 50 μM [4, 18]: 3.55 ×10⁻⁶ cm/s

COc1ccc2c(c1)c(CC(=O)O)c(C)n2C(=O)c1ccc(Cl)cc1 [Indomethacine]
log Kp [3, 6]: -5.39 cm/s
Papp at 4 h, 50 μM [4, 18]: 39.8 ×10⁻⁶ cm/s
change of skin-PAMPA log Pe after membrane treatment at basic pH [5]: remain constant
